Experimental findings from paper PMC8617627, “Novel DYRK1A Inhibitor Rescues Learning and Memory Deficits in a Mouse Model of Down Syndrome” (Pharmaceuticals, 2021) are described below.

What all share (assay): Kinase profile (33P ATP filter binding)
Type in all cases: biochemical

One assay concerns the target CAMKKb (Homo sapiens, UniProt Q96RR4). Particulars: read-out: Remaining protein kinase activity.
The target of another assay is WNK1 (Homo sapiens, UniProt Q9H4A3).
The next assay addresses RIPK2 (Homo sapiens, UniProt O43353). The following applies: read-out: Remaining protein kinase activity.
The target in the next assay is T1, PKCz (Homo sapiens, UniProt Q05513).
T1 sequence (Q05513 1-592): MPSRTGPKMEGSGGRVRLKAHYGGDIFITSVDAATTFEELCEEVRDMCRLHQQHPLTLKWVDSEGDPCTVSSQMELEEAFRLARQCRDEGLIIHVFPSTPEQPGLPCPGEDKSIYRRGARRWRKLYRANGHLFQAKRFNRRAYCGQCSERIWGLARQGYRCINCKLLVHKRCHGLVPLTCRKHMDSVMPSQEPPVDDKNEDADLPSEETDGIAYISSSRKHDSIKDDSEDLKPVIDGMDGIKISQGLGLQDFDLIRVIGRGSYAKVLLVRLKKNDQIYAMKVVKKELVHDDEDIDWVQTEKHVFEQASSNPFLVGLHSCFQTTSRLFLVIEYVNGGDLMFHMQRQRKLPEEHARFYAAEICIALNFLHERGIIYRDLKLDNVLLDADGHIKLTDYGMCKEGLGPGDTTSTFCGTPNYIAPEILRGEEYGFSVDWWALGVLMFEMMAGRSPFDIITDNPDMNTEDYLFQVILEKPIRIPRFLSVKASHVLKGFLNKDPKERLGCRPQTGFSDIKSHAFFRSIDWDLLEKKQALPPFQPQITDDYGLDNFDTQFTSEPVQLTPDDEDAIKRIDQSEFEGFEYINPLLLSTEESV
Particulars: read-out: Remaining protein kinase activity.

The target in another assay is T2, NUAK1 (Homo sapiens, UniProt O60285).
T2 sequence (O60285 1-661): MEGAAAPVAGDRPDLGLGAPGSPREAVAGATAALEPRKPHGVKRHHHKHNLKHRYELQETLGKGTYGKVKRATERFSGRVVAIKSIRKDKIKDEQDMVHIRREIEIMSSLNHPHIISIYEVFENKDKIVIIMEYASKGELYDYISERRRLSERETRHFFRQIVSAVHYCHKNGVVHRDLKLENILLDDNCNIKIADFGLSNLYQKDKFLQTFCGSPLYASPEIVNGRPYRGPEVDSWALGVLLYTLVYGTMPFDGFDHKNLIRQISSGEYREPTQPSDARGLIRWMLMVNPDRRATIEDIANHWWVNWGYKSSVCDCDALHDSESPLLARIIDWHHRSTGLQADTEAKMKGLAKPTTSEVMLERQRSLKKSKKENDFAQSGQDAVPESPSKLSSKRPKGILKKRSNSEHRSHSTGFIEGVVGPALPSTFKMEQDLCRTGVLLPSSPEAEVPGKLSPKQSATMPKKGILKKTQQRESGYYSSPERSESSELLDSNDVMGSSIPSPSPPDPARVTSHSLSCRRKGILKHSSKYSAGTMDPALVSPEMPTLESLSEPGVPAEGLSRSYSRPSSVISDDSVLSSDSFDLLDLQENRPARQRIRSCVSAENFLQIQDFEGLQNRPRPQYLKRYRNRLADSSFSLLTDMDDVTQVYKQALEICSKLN

The target of a further assay is MNK1 (Homo sapiens, UniProt Q9BUB5). The following applies: read-out: Remaining protein kinase activity.

Molecules are shown by their SMILES. Like-named read-outs stand apart in the source and are kept apart here.

Chain of MNK1 (Q9BUB5 whole entry): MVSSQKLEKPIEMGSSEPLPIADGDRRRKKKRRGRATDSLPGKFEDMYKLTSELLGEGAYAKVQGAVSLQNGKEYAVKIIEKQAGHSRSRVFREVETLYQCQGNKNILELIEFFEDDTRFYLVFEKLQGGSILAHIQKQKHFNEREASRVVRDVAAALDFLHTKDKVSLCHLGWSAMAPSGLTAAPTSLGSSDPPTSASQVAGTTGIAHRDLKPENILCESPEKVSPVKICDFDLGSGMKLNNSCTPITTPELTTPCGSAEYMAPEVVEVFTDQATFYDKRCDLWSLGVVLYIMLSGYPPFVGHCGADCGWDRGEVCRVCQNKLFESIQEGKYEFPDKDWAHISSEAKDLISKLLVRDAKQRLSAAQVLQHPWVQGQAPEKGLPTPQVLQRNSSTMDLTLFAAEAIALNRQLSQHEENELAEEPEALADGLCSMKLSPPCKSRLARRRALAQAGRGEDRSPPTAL
Chain of RIPK2 (O43353 whole entry): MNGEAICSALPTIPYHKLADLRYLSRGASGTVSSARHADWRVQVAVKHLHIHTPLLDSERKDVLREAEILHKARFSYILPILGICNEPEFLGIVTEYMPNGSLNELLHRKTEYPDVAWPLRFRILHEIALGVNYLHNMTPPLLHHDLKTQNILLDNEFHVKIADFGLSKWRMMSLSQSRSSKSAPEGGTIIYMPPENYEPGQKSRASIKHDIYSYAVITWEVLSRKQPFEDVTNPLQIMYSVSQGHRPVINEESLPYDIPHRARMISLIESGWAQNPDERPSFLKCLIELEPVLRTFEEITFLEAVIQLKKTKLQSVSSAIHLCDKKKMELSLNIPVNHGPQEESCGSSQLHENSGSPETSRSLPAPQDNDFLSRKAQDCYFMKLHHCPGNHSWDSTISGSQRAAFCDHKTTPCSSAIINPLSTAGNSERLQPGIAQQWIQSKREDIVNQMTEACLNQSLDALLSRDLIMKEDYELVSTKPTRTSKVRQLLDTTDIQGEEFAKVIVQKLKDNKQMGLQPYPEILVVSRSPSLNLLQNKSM
Chain of WNK1 (Q9H4A3 whole entry): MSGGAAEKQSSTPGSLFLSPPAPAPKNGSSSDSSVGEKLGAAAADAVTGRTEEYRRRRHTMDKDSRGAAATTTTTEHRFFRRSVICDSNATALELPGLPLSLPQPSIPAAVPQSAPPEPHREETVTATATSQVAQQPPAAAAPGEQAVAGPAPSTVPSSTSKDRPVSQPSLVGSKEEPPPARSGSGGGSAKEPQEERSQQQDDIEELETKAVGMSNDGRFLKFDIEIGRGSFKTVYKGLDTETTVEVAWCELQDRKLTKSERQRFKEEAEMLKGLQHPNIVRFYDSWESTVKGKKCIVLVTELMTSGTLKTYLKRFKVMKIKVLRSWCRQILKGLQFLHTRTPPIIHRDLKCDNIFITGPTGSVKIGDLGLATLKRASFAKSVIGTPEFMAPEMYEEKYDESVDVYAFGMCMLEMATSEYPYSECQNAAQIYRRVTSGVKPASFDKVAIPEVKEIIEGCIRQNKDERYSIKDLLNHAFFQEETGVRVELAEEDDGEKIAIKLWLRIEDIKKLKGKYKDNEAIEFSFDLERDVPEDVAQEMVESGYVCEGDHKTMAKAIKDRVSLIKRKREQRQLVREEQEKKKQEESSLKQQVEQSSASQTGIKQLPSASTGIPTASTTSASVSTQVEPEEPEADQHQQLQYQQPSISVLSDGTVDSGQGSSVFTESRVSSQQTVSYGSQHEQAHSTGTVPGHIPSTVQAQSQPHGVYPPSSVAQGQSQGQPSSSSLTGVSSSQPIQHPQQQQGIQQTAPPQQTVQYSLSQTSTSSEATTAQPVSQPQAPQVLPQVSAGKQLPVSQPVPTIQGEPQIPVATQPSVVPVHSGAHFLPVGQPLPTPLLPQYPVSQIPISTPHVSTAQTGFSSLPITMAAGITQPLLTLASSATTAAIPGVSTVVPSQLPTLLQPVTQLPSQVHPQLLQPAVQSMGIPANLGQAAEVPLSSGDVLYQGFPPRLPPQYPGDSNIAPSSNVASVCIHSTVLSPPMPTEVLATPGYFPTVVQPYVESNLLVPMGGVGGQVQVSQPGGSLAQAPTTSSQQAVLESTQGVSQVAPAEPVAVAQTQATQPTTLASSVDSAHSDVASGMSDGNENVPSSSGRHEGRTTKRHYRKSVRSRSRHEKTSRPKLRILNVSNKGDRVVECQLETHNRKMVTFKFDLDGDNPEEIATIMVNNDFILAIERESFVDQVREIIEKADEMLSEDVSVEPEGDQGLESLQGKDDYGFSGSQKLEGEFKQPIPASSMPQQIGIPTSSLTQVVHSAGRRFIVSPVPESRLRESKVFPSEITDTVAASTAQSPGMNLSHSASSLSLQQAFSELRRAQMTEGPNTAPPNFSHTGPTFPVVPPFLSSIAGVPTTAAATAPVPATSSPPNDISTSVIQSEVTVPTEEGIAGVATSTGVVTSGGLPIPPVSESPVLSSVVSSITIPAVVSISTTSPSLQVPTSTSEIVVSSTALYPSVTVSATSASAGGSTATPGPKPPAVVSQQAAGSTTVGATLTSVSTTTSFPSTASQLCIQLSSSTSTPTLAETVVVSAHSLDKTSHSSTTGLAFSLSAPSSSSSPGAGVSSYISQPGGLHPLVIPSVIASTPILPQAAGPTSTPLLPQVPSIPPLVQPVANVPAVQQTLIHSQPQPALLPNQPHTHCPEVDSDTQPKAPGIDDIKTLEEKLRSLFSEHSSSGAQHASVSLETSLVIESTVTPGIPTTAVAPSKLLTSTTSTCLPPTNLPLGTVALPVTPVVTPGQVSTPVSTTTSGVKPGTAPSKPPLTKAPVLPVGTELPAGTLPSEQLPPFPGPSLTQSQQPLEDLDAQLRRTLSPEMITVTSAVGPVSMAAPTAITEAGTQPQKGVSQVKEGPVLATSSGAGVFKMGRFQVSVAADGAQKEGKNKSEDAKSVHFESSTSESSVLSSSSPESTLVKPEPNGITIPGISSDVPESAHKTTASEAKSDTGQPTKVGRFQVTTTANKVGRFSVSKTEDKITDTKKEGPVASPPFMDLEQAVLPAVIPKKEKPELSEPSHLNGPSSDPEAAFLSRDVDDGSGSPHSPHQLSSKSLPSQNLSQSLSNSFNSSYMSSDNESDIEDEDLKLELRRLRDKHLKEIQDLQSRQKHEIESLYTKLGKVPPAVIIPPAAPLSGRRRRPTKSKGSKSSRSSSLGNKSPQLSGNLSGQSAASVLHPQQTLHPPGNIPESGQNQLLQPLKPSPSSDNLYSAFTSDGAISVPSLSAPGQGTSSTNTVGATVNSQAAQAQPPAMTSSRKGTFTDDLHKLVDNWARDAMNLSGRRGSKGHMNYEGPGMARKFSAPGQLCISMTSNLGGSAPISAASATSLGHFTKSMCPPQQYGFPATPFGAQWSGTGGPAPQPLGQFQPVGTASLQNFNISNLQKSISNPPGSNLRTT
Chain of CAMKKb (Q96RR4 whole entry): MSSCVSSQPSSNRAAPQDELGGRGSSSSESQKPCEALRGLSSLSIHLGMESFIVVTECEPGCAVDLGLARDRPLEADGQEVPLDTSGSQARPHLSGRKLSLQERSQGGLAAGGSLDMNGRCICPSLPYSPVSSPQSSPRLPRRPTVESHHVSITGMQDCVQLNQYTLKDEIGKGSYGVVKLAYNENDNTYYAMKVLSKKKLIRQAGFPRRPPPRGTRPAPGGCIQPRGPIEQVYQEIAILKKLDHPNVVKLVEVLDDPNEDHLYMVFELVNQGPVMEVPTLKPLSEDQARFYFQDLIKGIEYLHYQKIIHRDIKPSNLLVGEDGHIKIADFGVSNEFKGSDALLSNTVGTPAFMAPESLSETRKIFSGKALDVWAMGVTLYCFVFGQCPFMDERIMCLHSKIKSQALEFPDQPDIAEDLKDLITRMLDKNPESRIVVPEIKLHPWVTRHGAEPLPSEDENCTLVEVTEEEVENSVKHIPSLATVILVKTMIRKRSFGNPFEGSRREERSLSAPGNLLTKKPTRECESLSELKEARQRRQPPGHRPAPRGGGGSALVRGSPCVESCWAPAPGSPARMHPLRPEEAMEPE

As usually defined, the remaining activity is the signal under treatment as a percentage of the control signal. `COc1ccc2sc(-c3cncc(N)c3)nc2c1` [compound 1, 5-(5-Methoxybenzo[d]thiazol-2-yl)pyridin-3-amine]: the remaining activity at 1 µM on CAMKKb (CAMKKb, 1 μM) came to 107%; at RIPK2 (RIPK2, 1 μM), 104%; at PKCz (PKCz, 1 μM), 106%; at MNK1 (MNK1, 1 μM), 97%. Moreover, the remaining activity at 100 µM on CAMKKb (CAMKKb, 100 μM) was 37%; at RIPK2 (RIPK2, 100 μM), 20%; at PKCz (PKCz, 100 μM), 128%; on MNK1 (MNK1, 100 μM), 20%. The “Remaining protein kinase activity” value at WNK1 (1 μM) worked out at 116%; on WNK1 (100 μM) it was 113%; at NUAK1 (1 μM), 112%; on NUAK1 (100 μM), 35%.
With `COc1ccc2sc(-c3cncc(NC(C)=O)c3)nc2c1` [PST-001, N-(5-(5-Methoxybenzo[d]thiazol-2-yl)pyridin-3-yl)acetamide], the remaining activity at 1 µM was found to be 104% at CAMKKb, 109% on RIPK2, 119% on PKCz and 111% at MNK1. Also, the remaining activity at 100 µM on CAMKKb was determined as 54%; on PKCz, 124%; on MNK1, 94%. Further, the “Remaining protein kinase activity” value was found to be 127% on WNK1 (1 μM), 118% on WNK1 (100 μM) and 130% on NUAK1 (1 μM).
